Legend:
[1] = Drug level in New Zealand white rabbit bone assessed as [14C]dalbavancin level per gram of tissue at 20 mg/kg, iv after 72 hrs by liquid scintillation counting method; type: ADME, organism-based, Oryctolagus cuniculus, Bone element; set-up: dose 20 mg/kg, route intravenous; details: in vivo
[2] = Drug level in New Zealand white rabbit meniscus assessed as [14C]dalbavancin level per gram of tissue at 20 mg/kg, iv after 24 hrs by autoradioluminography; type: ADME, organism-based, Oryctolagus cuniculus; set-up: dose 20 mg/kg, route intravenous; details: in vivo
[3] = Drug level in New Zealand white rabbit periostium assessed as [14C]dalbavancin level per gram of tissue at 20 mg/kg, iv after 12 hrs by autoradioluminography; type: ADME, organism-based, Oryctolagus cuniculus, Periosteum; set-up: dose 20 mg/kg, route intravenous; details: in vivo
[4] = Drug level in New Zealand white rabbit cerebrospinal fluid assessed as [14C]dalbavancin level per gram of tissue at 20 mg/kg, iv after 12 hrs by liquid scintillation counting method; type: ADME, organism-based, Oryctolagus cuniculus; set-up: dose 20 mg/kg, route intravenous; details: in vivo
[5] = Drug level in New Zealand white rabbit bone marrow assessed as [14C]dalbavancin level per gram of tissue at 20 mg/kg, iv after 72 hrs by autoradioluminography; type: ADME, organism-based, Oryctolagus cuniculus; set-up: dose 20 mg/kg, route intravenous; details: in vivo
[6] = Drug level in New Zealand white rabbit meniscus assessed as [14C]dalbavancin level per gram of tissue at 20 mg/kg, iv after 120 hrs by autoradioluminography; type: ADME, organism-based, Oryctolagus cuniculus; set-up: dose 20 mg/kg, route intravenous; details: in vivo
[7] = Drug level in New Zealand white rabbit periostium assessed as [14C]dalbavancin level per gram of tissue at 20 mg/kg, iv after 120 hrs by autoradioluminography; type: ADME, organism-based, Oryctolagus cuniculus, Periosteum; set-up: dose 20 mg/kg, route intravenous; details: in vivo
[8] = Drug level in human urine assessed as hydroxydalbavancin level; type: ADME, tissue-based
[9] = tested on: Blood; assay: Drug level in New Zealand white rabbit blood assessed as [14C]dalbavancin level per gram of tissue at 20 mg/kg, iv after 120 hrs by autoradioluminography; type: ADME, organism-based, Oryctolagus cuniculus; set-up: dose 20 mg/kg, route intravenous; details: in vivo
[10] = Drug level in New Zealand white rabbit articular cartilage assessed as [14C]dalbavancin level per gram of tissue at 20 mg/kg, iv after 168 hrs by autoradioluminography; type: ADME, organism-based, Oryctolagus cuniculus; set-up: dose 20 mg/kg, route intravenous; details: in vivo
[11] = Drug level in New Zealand white rabbit articular cartilage assessed as [14C]dalbavancin level per gram of tissue at 20 mg/kg, iv after 120 hrs by autoradioluminography; type: ADME, organism-based, Oryctolagus cuniculus; set-up: dose 20 mg/kg, route intravenous; details: in vivo
[12] = Drug level in New Zealand white rabbit nucleus pulposus assessed as [14C]dalbavancin level per gram of tissue at 20 mg/kg, iv after 120 hrs by liquid scintillation counting method; type: ADME, organism-based, Oryctolagus cuniculus; set-up: dose 20 mg/kg, route intravenous; details: in vivo
[13] = Drug level in New Zealand white rabbit epiphyseal plate assessed as [14C]dalbavancin level per gram of tissue at 20 mg/kg, iv after 12 hrs by autoradioluminography; type: ADME, organism-based, Oryctolagus cuniculus; set-up: dose 20 mg/kg, route intravenous; details: in vivo
[14] = Drug level in New Zealand white rabbit compact bone assessed as [14C]dalbavancin level per gram of tissue at 20 mg/kg, iv after 24 hrs by autoradioluminography; type: ADME, organism-based, Oryctolagus cuniculus, Bone element; set-up: dose 20 mg/kg, route intravenous; details: in vivo
[15] = Drug level in New Zealand white rabbit nucleus pulposus assessed as [14C]dalbavancin level per gram of tissue at 20 mg/kg, iv after 12 hrs by liquid scintillation counting method; type: ADME, organism-based, Oryctolagus cuniculus; set-up: dose 20 mg/kg, route intravenous; details: in vivo
[16] = Drug level in New Zealand white rabbit skeletal muscle assessed as [14C]dalbavancin level per gram of tissue at 20 mg/kg, iv after 168 hrs by autoradioluminography; type: ADME, organism-based, Oryctolagus cuniculus; set-up: dose 20 mg/kg, route intravenous; details: in vivo
[17] = tested on: Oryctolagus cuniculus; assay: Plasma concentration in New Zealand white rabbit assessed as [14C]dalbavancin level per gram of tissue at 20 mg/kg, iv after 72 hrs by liquid scintillation counting method; type: ADME, organism-based; set-up: dose 20 mg/kg, route intravenous; details: in vivo
[18] = tested on: Oryctolagus cuniculus; assay: Plasma concentration in New Zealand white rabbit assessed as [14C]dalbavancin level per gram of tissue at 20 mg/kg, iv after 168 hrs by liquid scintillation counting method; type: ADME, organism-based; set-up: dose 20 mg/kg, route intravenous; details: in vivo
[19] = Drug level in New Zealand white rabbit articular cartilage assessed as [14C]dalbavancin level per gram of tissue at 20 mg/kg, iv after 336 hrs by autoradioluminography; type: ADME, organism-based, Oryctolagus cuniculus; set-up: dose 20 mg/kg, route intravenous; details: in vivo
[20] = Drug level in New Zealand white rabbit bone assessed as [14C]dalbavancin level per gram of tissue at 20 mg/kg, iv after 120 hrs by liquid scintillation counting method; type: ADME, organism-based, Oryctolagus cuniculus, Bone element; set-up: dose 20 mg/kg, route intravenous; details: in vivo
[21] = Drug level in New Zealand white rabbit epiphyseal plate assessed as [14C]dalbavancin level per gram of tissue at 20 mg/kg, iv after 120 hrs by autoradioluminography; type: ADME, organism-based, Oryctolagus cuniculus; set-up: dose 20 mg/kg, route intravenous; details: in vivo
[22] = Drug level in New Zealand white rabbit synovial space assessed as [14C]dalbavancin level per gram of tissue at 20 mg/kg, iv after 168 hrs by autoradioluminography; type: ADME, organism-based, Oryctolagus cuniculus; set-up: dose 20 mg/kg, route intravenous; details: in vivo
[23] = Drug level in New Zealand white rabbit bone marrow assessed as [14C]dalbavancin level per gram of tissue at 20 mg/kg, iv after 120 hrs by liquid scintillation counting method; type: ADME, organism-based, Oryctolagus cuniculus; set-up: dose 20 mg/kg, route intravenous; details: in vivo
[24] = Drug level in New Zealand white rabbit compact bone assessed as [14C]dalbavancin level per gram of tissue at 20 mg/kg, iv after 12 hrs by autoradioluminography; type: ADME, organism-based, Oryctolagus cuniculus, Bone element; set-up: dose 20 mg/kg, route intravenous; details: in vivo
[25] = Drug level in New Zealand white rabbit periostium assessed as [14C]dalbavancin level per gram of tissue at 20 mg/kg, iv after 168 hrs by autoradioluminography; type: ADME, organism-based, Oryctolagus cuniculus, Periosteum; set-up: dose 20 mg/kg, route intravenous; details: in vivo
[26] = Drug level in New Zealand white rabbit bone marrow assessed as [14C]dalbavancin level per gram of tissue at 20 mg/kg, iv after 12 hrs by liquid scintillation counting method; type: ADME, organism-based, Oryctolagus cuniculus; set-up: dose 20 mg/kg, route intravenous; details: in vivo
[27] = tested on: Staphylococcus; assay: Antibacterial activity against Staphylococcus; type: functional
[28] = Drug level in New Zealand white rabbit ligament assessed as [14C]dalbavancin level per gram of tissue at 20 mg/kg, iv after 12 hrs by autoradioluminography; type: ADME, organism-based, Oryctolagus cuniculus; set-up: dose 20 mg/kg, route intravenous; details: in vivo
[29] = Drug level in New Zealand white rabbit skeletal muscle assessed as [14C]dalbavancin level per gram of tissue at 20 mg/kg, iv after 24 hrs by autoradioluminography; type: ADME, organism-based, Oryctolagus cuniculus; set-up: dose 20 mg/kg, route intravenous; details: in vivo
[30] = Drug level in New Zealand white rabbit bone assessed as [14C]dalbavancin level per gram of tissue at 20 mg/kg, iv after 12 hrs by liquid scintillation counting method; type: ADME, organism-based, Oryctolagus cuniculus, Bone element; set-up: dose 20 mg/kg, route intravenous; details: in vivo
[31] = Drug level in New Zealand white rabbit cerebrospinal fluid assessed as [14C]dalbavancin level per gram of tissue at 20 mg/kg, iv after 24 hrs by liquid scintillation counting method; type: ADME, organism-based, Oryctolagus cuniculus; set-up: dose 20 mg/kg, route intravenous; details: in vivo
[32] = Drug level in New Zealand white rabbit skeletal muscle assessed as [14C]dalbavancin level per gram of tissue at 20 mg/kg, iv after 120 hrs by autoradioluminography; type: ADME, organism-based, Oryctolagus cuniculus; set-up: dose 20 mg/kg, route intravenous; details: in vivo
[33] = Drug level in New Zealand white rabbit periostium assessed as [14C]dalbavancin level per gram of tissue at 20 mg/kg, iv after 24 hrs by autoradioluminography; type: ADME, organism-based, Oryctolagus cuniculus, Periosteum; set-up: dose 20 mg/kg, route intravenous; details: in vivo
[34] = Drug level in New Zealand white rabbit articular cartilage assessed as [14C]dalbavancin level per gram of tissue at 20 mg/kg, iv after 24 hrs by autoradioluminography; type: ADME, organism-based, Oryctolagus cuniculus; set-up: dose 20 mg/kg, route intravenous; details: in vivo
[35] = Drug level in New Zealand white rabbit nucleus pulposus assessed as [14C]dalbavancin level per gram of tissue at 20 mg/kg, iv after 24 hrs by liquid scintillation counting method; type: ADME, organism-based, Oryctolagus cuniculus; set-up: dose 20 mg/kg, route intravenous; details: in vivo
[36] = Drug level in New Zealand white rabbit ligament assessed as [14C]dalbavancin level per gram of tissue at 20 mg/kg, iv after 24 hrs by autoradioluminography; type: ADME, organism-based, Oryctolagus cuniculus; set-up: dose 20 mg/kg, route intravenous; details: in vivo
[37] = Drug level in New Zealand white rabbit compact bone assessed as [14C]dalbavancin level per gram of tissue at 20 mg/kg, iv after 168 hrs by autoradioluminography; type: ADME, organism-based, Oryctolagus cuniculus, Bone element; set-up: dose 20 mg/kg, route intravenous; details: in vivo
[38] = Drug level in New Zealand white rabbit periostium assessed as [14C]dalbavancin level per gram of tissue at 20 mg/kg, iv after 72 hrs by autoradioluminography; type: ADME, organism-based, Oryctolagus cuniculus, Periosteum; set-up: dose 20 mg/kg, route intravenous; details: in vivo

Drug uptake [1]: 3.94 µg/g | Drug uptake [2]: 12.4 µg/g | Drug uptake [3]: 20.9 µg/g | Drug uptake [4]: 0.08 µg/g | Drug uptake [5]: 37.79 µg | Drug uptake [6]: 4.39 µg/g | Drug uptake [7]: 12.2 µg/g | Drug uptake [8]: 8 %ID | Drug uptake [9]: 1.5 µg/g | Drug uptake [10]: 7.48 µg/g | Drug uptake [11]: 6.56 µg | Drug uptake [12]: 0.75 µg/g | Drug uptake [13]: 21.9 µg/g | Drug uptake [14]: 1.56 µg/g | Drug uptake [15]: 0.86 µg/g | Drug uptake [16]: 0.94 µg/g | Cp [17]: 4.5 µg | Cp [18]: 2.01 µg | Drug uptake [19]: 4.84 µg | Drug uptake [20]: 3.46 µg/g | Drug uptake [21]: 10.3 µg/g | Drug uptake [22]: 2.66 µg/g | Drug uptake [23]: 9.52 µg/g | Drug uptake [24]: 1.56 µg/g | Drug uptake [25]: 7.28 µg | Drug uptake [26]: 15.1 µg/g | MIC90 [27]: ≤ 0.06 µg/mL | Drug uptake [28]: 22.1 µg/g | Drug uptake [29]: 1.92 µg | Drug uptake [30]: 7.04 µg | Drug uptake [31]: 0.05 µg/g | Drug uptake [32]: 0.99 µg/g | Drug uptake [33]: 11.35 µg | Drug uptake [34]: 21.4 µg/g | Drug uptake [35]: 0.76 µg/g | Drug uptake [36]: 8.64 µg/g | Drug uptake [37]: 0.34 µg/g | Drug uptake [38]: 8.78 µg/g
SMILES: CN[C@H]1C(=O)N[C@@H]2Cc3ccc(cc3)Oc3cc4cc(c3O[C@@H]3O[C@H](C(=O)O)[C@@H](O)[C@H](O)[C@H]3NC(=O)CCCCCCCCC(C)C)Oc3ccc(cc3Cl)[C@@H](O)[C@@H]3NC(=O)[C@H](NC(=O)[C@@H]4NC(=O)[C@@H](NC2=O)c2cc(cc(O)c2Cl)Oc2cc1ccc2O)c1ccc(O)c(c1)-c1c(O[C@H]2O[C@H](CO)[C@@H](O)[C@H](O)[C@@H]2O)cc(O)cc1[C@@H](C(=O)NCCCN(C)C)NC3=O [DALBAVANCIN]

Reference: ChEMBL document CHEMBL1155172, “Distribution of radioactivity in bone and related structures following administration of [14C]dalbavancin to New Zealand white rabbits” (Antimicrob Agents Chemother, 2007)
